Holding throughout (format): cell-based
Assay [1] deals with SKOV3. As to the kind of experiment: MTT assay (CellTiter96), cytotoxic activity. The settings on record: 48 h incubation. The protocol: (§1) The biological behaviour of all substances was characterized by their cytotoxic activity against a panel of cell lines enabling an understanding of the structure-activity relationship. Cytotoxic activity was determined on ovarian carcinoma cell lines SKOV3 and A2780 as well as their Cisplatin resistant analogues (SKOV3cis and A2780cis) and the lung carcinoma cell line A549. Due to a low solubility in water, dmso is used as a solvent for the preparation of a dilution series in cell culture experiments. The toxic influence of dmso was determined earlier and experiments were carried out with 0.5% dmso in cell culture media and this concentration was used as reference sample in each MTT assay (details: Section 3). […] Resistance factors (RF) were determined for all substances (for IC50 values and RF of β-Hydroxydithiocinnamic acid esters L1–L18, see Tables S2 and S3, Supplementary part). All investigated ruthenium(II) compounds show lower RF values than Cisplatin on ovarian carcinoma cell lines, ranging from 0.2 to 1.5 (Table 3). Whereas the IC50 values on the non-resistant cell lines are in most cases higher than the IC50 of the reference substance, no increase of IC50 values is observed for the resistant cell lines. Contrary, eight ruthenium complexes show lower IC50 values on SKOV3cis than Cisplatin and four compounds on A2780cis. Thus, it can be concluded that these compounds are able to bypass the Cisplatin resistance mechanism in these cell lines pointing to a different mechanism of action.
(§2) Ovarian cancer cell lines were cultured under standard conditions (5% CO2, 37 °C, 90% humidity) in RPMI medium supplemented with 10% FCS, 100 U/mL penicillin and 100 µg/mL streptomycin (Life Technologies, Dreieich, Germany). Cisplatin (Sigma, Taufkirchen, Germany) was freshly dissolved at 1 mg/mL in 0.9% NaCl solution and diluted appropriately. New ruthenium(II) complexes and ligands were dissolved in dmso. Platinum-resistant A2780 and SKOV3 cells were established by repeated rounds of 3-day incubations with increasing amounts of Cisplatin starting with 0.1 µM. The concentration was doubled after 3 incubations, interrupted by recovery phases with normal medium. […] Determinations of IC50 values were carried out using the CellTiter96 non-radioactive proliferation assay (MTT assay, Promega, Mannheim, Germany). After seeding 5000 cells per well in a 96-well plate, cells were allowed to attach for 24 h and were incubated for 48 h with different concentrations of the substances ranging from 0 to 500 µM for Ruthenium and 0 to 1000 µM for ligand tests (0, 1, 10, 50, 100, 500, 1000 µm), for Cisplatin from 0 to 100 µM (0.1, 1, 5, 10, 50, 100 µM). Each measurement was done in triplicate and repeated 3 times. The proportion of viable cells was quantified by the MTT assay and after background subtraction relative values compared to the mean of medium controls were calculated. Non-linear regression analyses applying the Hill slope were run in GraphPad 5.0 software.
In general terms: Tetrazolium assays rely on reduction of a dye to a coloured formazan, in cell work by metabolically active cells.

For assay [2], the system named is SKOV3cis. As to the kind of experiment: MTT assay (CellTiter96), cytotoxic activity. As to conditions: for IC50: Cisplatin resistant SKOV3, MTT assay, 48 h incubation; for RF SKOV3 (resistance factor): SKOV3cis vs SKOV3. On the procedure:
as §1, §2

The test system of assay [3] is A549. As to the kind of experiment: MTT assay (CellTiter96), cytotoxic activity. As to conditions: lung carcinoma cell line, 48 h incubation. On the procedure:
as §1, §2

For assay [4], the system named is A2780cis. The assay can be described thus: MTT assay (CellTiter96), cytotoxic activity. As to conditions: for RF A2780 (resistance factor): A2780cis vs A2780; for IC50: Cisplatin resistant A2780, MTT assay, 48 h incubation. On the procedure:
as §1, §2

Assay [5] concerns A2780. The assay can be described thus: MTT assay (CellTiter96), cytotoxic activity. The settings on record: 48 h incubation. The protocol: as §1, §2
For assay [6], the system named is Cisplatin resistant cell lines. As to the kind of experiment: Mean IC50 (MTT assay) on Cisplatin resistant cell lines. The protocol:
Thus, it can be concluded that the biological activity is mediated by a longer chain (butoxy) at the meta-position, whereas the ortho- and para-positions are more suitable with a shorter chain (ethoxy). To have a further look at the influence of the different ligand systems and substitution patterns, all β-Hydroxydithiocinnamic acid alkyl esters were tested under same conditions as their derived ruthenium(II) complexes (Figure 5B, Supplementary Table S3). […] All ligands are less cytotoxic than Cisplatin itself and therefore the metal(II) center is necessary for the high cytotoxic activity, what is in clear contrast to the literature for O,S-chelating ruthenium(II) or osmium(II) compounds with thiomaltol ligand [48, 71] but confirmed for Ru(II)/Os(II) compounds with N,N-bidentate glycosyl heterocyclic ligands. This is exemplarily shown by the comparison of mean IC50 values for Cisplatin, L14, and Ru14 (Supplementary Figure S8).
as §2

As for “[(η^6-p-cymene)Ru(1-(4-methoxyphenyl)-3-(ethylthio)-3-thioxo-prop-1-en-1-olate-O,S)] [Ru12]”, the 50% inhibitory concentration (IC50) – broadly, the concentration at which inhibition is half-maximal – was 24 µM in assay [1]; 12.7 µM in assay [2]; 6.9 µM in assay [3]; 10.1 µM in assay [4]; 11 µM in assay [5]. Moreover, the “RF SKOV3 (resistance factor)” value in assay [2] is recorded as 0.5. Besides, the “RF A2780 (resistance factor)” value in assay [4] was determined as 0.9.

`CCSC(=S)C=C([O][Ru][Cl])c1cccc(O)c1.Cc1ccc(C(C)C)cc1` [Ru5, [(η^6-p-cymene)Ru(1-(3-hydroxyphenyl)-3-(ethylthio)-3-thioxo-prop-1-en-1-olate-O,S)Cl]]: the 50% inhibitory concentration (IC50) in assay [1] was 15.4 µM; in assay [2] it was 9.3 µM; in assay [3] it was 11.5 µM; in assay [4], 8.1 µM; in assay [5], 44.9 µM. For the same compound, the “RF SKOV3 (resistance factor)” value in assay [2] is reported as 0.6. Also, the “RF A2780 (resistance factor)” value in assay [4] was 0.2. Further, the “mean IC50 value on Cisplatin resistant cell lines compared with Cisplatin” value in assay [6] is listed as “lower”.

With `CCSC(=S)C=C([O][Ru][Cl])c1ccccc1.Cc1ccc(C(C)C)cc1` [Ru2, [(η^6-p-cymene)Ru(1-phenyl-3-(ethylthio)-3-thioxo-prop-1-en-1-olate-O,S)Cl]], the IC50 in assay [1] was determined as 15.7 µM; in assay [2], 11.1 µM; in assay [3] it was 12.2 µM; in assay [4] it was 4.8 µM; in assay [5], 10 µM. Moreover, the “RF SKOV3 (resistance factor)” value in assay [2] worked out at 0.7. Further, the “RF A2780 (resistance factor)” value in assay [4] was determined as 0.48. Further, the “mean IC50 value on Cisplatin resistant cell lines compared with Cisplatin” value in assay [6] is listed as “lower”.

As to “[(η^6-p-cymene)Ru(1-(3-methoxyphenyl)-3-(methylthio)-3-thioxo-prop-1-en-1-olate-O,S)] [Ru8]”, the half-maximal inhibitory concentration (IC50) in assay [1] was 21.3 µM; in assay [2], 20.3 µM; in assay [3], 13.7 µM; in assay [4] it was 16.8 µM; in assay [5] it was 14.3 µM. Further, the “RF SKOV3 (resistance factor)” value in assay [2] was 1. For the same compound, the “RF A2780 (resistance factor)” value in assay [4] is 1.2.

For “[(η^6-p-cymene)Os(1-(2-ethoxyphenyl)-3-(methylthio)-3-thioxo-prop-1-en-1-olate-O,S)] [Os13]”, the IC50 in assay [1] came out at 4.1 µM; in assay [2] it was 7.1 µM; in assay [3], 3.1 µM; in assay [4], 0.8 µM; in assay [5] it was 0.3 µM. Also, in assay [2], the “RF SKOV3 (resistance factor)” value is reported as 1.7. Further, in assay [4], the “RF A2780 (resistance factor)” value stood at 2.7.

Take “[(η^6-p-cymene)Ru(1-(2-ethoxyphenyl)-3-(methylthio)-3-thioxo-prop-1-en-1-olate-O,S)] [Ru13]”: the IC50 was found to be 16.9 µM in assay [1]; 17.4 µM in assay [2]; 28.4 µM in assay [3]; 4.8 µM in assay [4]; 2.6 µM in assay [5]. Besides, the “RF SKOV3 (resistance factor)” value in assay [2] is 1. In addition, the “RF A2780 (resistance factor)” value in assay [4] was 1.8.

“[(η^6-p-cymene)Ru(1-(2-methoxyphenyl)-3-(methylthio)-3-thioxo-prop-1-en-1-olate-O,S)] [Ru7]”: the IC50 in assay [1] is 22.4 µM; in assay [2], 17.8 µM; in assay [3], 15.3 µM; in assay [4], 15 µM; in assay [5] it was 16.4 µM. The “RF SKOV3 (resistance factor)” value in assay [2] came out at 0.8. In addition, the “RF A2780 (resistance factor)” value in assay [4] amounted to 0.9.

On to “[(η^6-p-cymene)Ru(1-(3-methoxyphenyl)-3-(ethylthio)-3-thioxo-prop-1-en-1-olate-O,S)] [Ru11]”, for which the IC50 in assay [1] came out at 17 µM; in assay [2], 16.8 µM; in assay [3], 19 µM; in assay [4], 11.8 µM; in assay [5], 15.6 µM. Further, the “RF SKOV3 (resistance factor)” value in assay [2] amounted to 1. Besides, the “RF A2780 (resistance factor)” value in assay [4] came out at 0.8.

Take `CSC(=S)C=C([O][Ru][Cl])c1ccc(O)cc1.Cc1ccc(C(C)C)cc1` [Ru4, [(η^6-p-cymene)Ru(1-(4-hydroxyphenyl)-3-(methylthio)-3-thioxo-prop-1-en-1-olate-O,S)Cl]]: the concentration for half-maximal inhibition (IC50) in assay [1] turned out to be 21.8 µM; in assay [2] it was 27.9 µM; in assay [3], 26.3 µM; in assay [4], 21.4 µM; in assay [5], 21.4 µM. The “RF SKOV3 (resistance factor)” value in assay [2] came to 1.3. For the same compound, the “RF A2780 (resistance factor)” value in assay [4] is recorded as 1.

For the compound “[(η^6-p-cymene)Ru(1-(3-butoxyphenyl)-3-(methylthio)-3-thioxo-prop-1-en-1-olate-O,S)] [Ru16]”, the half-inhibitory concentration (IC50) in assay [1] came to 13.2 µM; in assay [2], 13.2 µM; in assay [3], 4.9 µM; in assay [4], 6.8 µM; in assay [5], 5.4 µM. Also, the “RF SKOV3 (resistance factor)” value in assay [2] worked out at 1. Also, in assay [4], the “RF A2780 (resistance factor)” value came out at 1.3.

As for “[(η^6-p-cymene)Os(1-(2-methoxyphenyl)-3-(methylthio)-3-thioxo-prop-1-en-1-olate-O,S)] [Os7]”, the IC50 in assay [1] was 8.8 µM; in assay [2], 0.6 µM; in assay [3], 6.2 µM; in assay [4], 2.1 µM; in assay [5] it was 0.4 µM. Also, the “RF SKOV3 (resistance factor)” value in assay [2] was determined as 0.1. In addition, the “RF A2780 (resistance factor)” value in assay [4] is reported as 5.3.

As for `CCSC(=S)C=C([O][Ru][Cl])c1ccc(O)cc1.Cc1ccc(C(C)C)cc1` [Ru6, [(η^6-p-cymene)Ru(1-(4-hydroxyphenyl)-3-(ethylthio)-3-thioxo-prop-1-en-1-olate-O,S)Cl]], the 50% inhibitory concentration (IC50) in assay [1] was 28.6 µM; in assay [2], 22.6 µM; in assay [3], 48.5 µM; in assay [4], 15.3 µM; in assay [5], 15.4 µM. In addition, the “RF SKOV3 (resistance factor)” value in assay [2] came out at 0.8. Moreover, the “RF A2780 (resistance factor)” value in assay [4] came to 1.

As to “[(η^6-p-cymene)Ru(1-(4-butoxyphenyl)-3-(methylthio)-3-thioxo-prop-1-en-1-olate-O,S)] [Ru17]”, the IC50 in assay [1] stood at 17.2 µM; in assay [2], 17.5 µM; in assay [3] it was 15.1 µM; in assay [4] it was 9.8 µM; in assay [5], 14.2 µM. In addition, the “RF SKOV3 (resistance factor)” value in assay [2] came out at 1. Besides, the “RF A2780 (resistance factor)” value in assay [4] is reported as 0.7.

“[(η^6-p-cymene)Os(1-(3-ethoxyphenyl)-3-(methylthio)-3-thioxo-prop-1-en-1-olate-O,S)] [Os14]”: the half-inhibitory concentration (IC50) was 10.4 µM in assay [1]; 12.1 µM in assay [2]; 5.5 µM in assay [3]; 1.3 µM in assay [4]; 0.3 µM in assay [5]. In assay [2], the “RF SKOV3 (resistance factor)” value worked out at 1.2. Besides, the “RF A2780 (resistance factor)” value in assay [4] is 4.3.

Consider “[(η^6-p-cymene)Ru(1-(2-methoxyphenyl)-3-(ethylthio)-3-thioxo-prop-1-en-1-olate-O,S)] [Ru10]”, for which the IC50 in assay [1] amounted to 27.7 µM; in assay [2], 17.7 µM; in assay [3], 27.7 µM; in assay [4], 11.7 µM; in assay [5], 14.6 µM. Also, the “RF SKOV3 (resistance factor)” value in assay [2] is 0.6. Moreover, the “RF A2780 (resistance factor)” value in assay [4] is given as 0.8.

For “[(η^6-p-cymene)Ru(1-(4-methoxyphenyl)-3-(methylthio)-3-thioxo-prop-1-en-1-olate-O,S)] [Ru9]”, the IC50 in assay [1] was 25.3 µM; in assay [2], 12.5 µM; in assay [3] it was 39.6 µM; in assay [4], 16.4 µM; in assay [5], 24.2 µM. Also, the “RF SKOV3 (resistance factor)” value in assay [2] was 0.5. Further, the “RF A2780 (resistance factor)” value in assay [4] was 0.7.
